# US10106556B2, “Heterocyclic compound” (TAKEDA PHARMACEUTICAL COMPANY LIMITED, priority 2015, dated 2018)
# Biological target: T1, His-hMAGL (recombinant polyhistidine tagged human MAGL protein) (Homo sapiens, UniProt Q99685)
# T1 construct: made in house; host or cells: E. coli BL21(DE3)
# T1 sequence (Q99685 1-303): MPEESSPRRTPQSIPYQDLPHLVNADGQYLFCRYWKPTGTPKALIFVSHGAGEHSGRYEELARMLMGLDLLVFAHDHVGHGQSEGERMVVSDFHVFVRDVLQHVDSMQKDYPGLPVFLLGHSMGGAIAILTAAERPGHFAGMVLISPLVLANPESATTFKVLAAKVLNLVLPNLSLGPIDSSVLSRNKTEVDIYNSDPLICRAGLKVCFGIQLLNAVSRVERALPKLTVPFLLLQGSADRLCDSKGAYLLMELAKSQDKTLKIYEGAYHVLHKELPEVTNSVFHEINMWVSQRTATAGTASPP
# Experiment: Measurement of MAGL inhibitory activity (arachidonic acid production from 2-arachidonylglycerol, RapidFire-mass spectrometry)
# Assay type: biochemical
# Conditions: MAGL inhibitory rate at 10 μM test compound; 60 min preincubation with His-hMAGL, 2-arachidonylglycerol substrate, 10 min reaction at room temperature
# In short: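 Inhibition (%) was derived from arachidonic acid levels relative to enzyme-free and compound-free groups. Product was measured by online C4 solid-phase extraction and triple-quadrupole MS in negative SRM mode, corrected by arachidonic acid-d8 (3 μM in the acetonitrile added). Substrate was 2-arachidonylglycerol; enzyme was His-tagged recombinant human MAGL.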
row,inhibition at 10 µM,SMILES
1,99%,"CC(C)(C)c1ccc(OCC2CN(C(=O)c3cc4c(cc3F)OCC(=O)N4)C2)c(Cl)c1 [Example 118, 6-((3-((4-tert-butyl-2-chlorophenoxy)methyl)azetidin-1-yl)carbonyl)-7-fluoro-2H-1,4-benzoxazin-3(4H)-one]"
2,102%,"N#Cc1cc(Cl)ccc1OCC1CN(C(=O)c2cc3c(cc2F)OCC(=O)N3)C1 [Example 119, 5-chloro-2-((1-((7-fluoro-3-oxo-3,4-dihydro-2H-1,4-benzoxazin-6-yl)carbonyl)azetidin-3-yl)methoxy)benzonitrile]"
3,101%,"Cc1cc(F)ccc1OCC1CN(C(=O)c2cc3c(cc2F)OCC(=O)N3)C1 [Example 120, 7-fluoro-6-((3-((4-fluoro-2-methylphenoxy)methyl)azetidin-1-yl)carbonyl)-2H-1,4-benzoxazin-3(4H)-one]"
4,99%,"COc1cc(F)ccc1OCC1CN(C(=O)c2cc3c(cc2F)OCC(=O)N3)C1 [Example 121, 7-fluoro-6-((3-((4-fluoro-2-methoxyphenoxy)methyl)azetidin-1-yl)carbonyl)-2H-1,4-benzoxazin-3(4H)-one]"
5,102%,"O=C1COc2cc(F)c(C(=O)N3CC(COc4c(Cl)cccc4Cl)C3)cc2N1 [Example 122, 6-((3-((2,6-dichlorophenoxy)methyl)azetidin-1-yl)carbonyl)-7-fluoro-2H-1,4-benzoxazin-3(4H)-one]"
6,102%,"O=C1COc2cc(F)c(C(=O)N3CC(COc4cccc(Cl)c4Cl)C3)cc2N1 [Example 123, 6-((3-((2,3-dichlorophenoxy)methyl)azetidin-1-yl)carbonyl)-7-fluoro-2H-1,4-benzoxazin-3(4H)-one]"
7,100%,"O=C1COc2cc(F)c(C(=O)N3CC(COc4ccc(Cl)c(Cl)c4)C3)cc2N1 [Example 124, 6-((3-((3,4-dichlorophenoxy)methyl)azetidin-1-yl)carbonyl)-7-fluoro-2H-1,4-benzoxazin-3(4H)-one]"
8,98%,"O=C1COc2cc(F)c(C(=O)N3CC(COc4cc(Cl)ccc4Cl)C3)cc2N1 [Example 125, 6-((3-((2,5-dichlorophenoxy)methyl)azetidin-1-yl)carbonyl)-7-fluoro-2H-1,4-benzoxazin-3(4H)-one]"
9,102%,"O=C1COc2cc(F)c(C(=O)N3CC(COc4ccc(Cl)cc4F)C3)cc2N1 [Example 126, 6-((3-((4-chloro-2-fluorophenoxy)methyl)azetidin-1-yl)carbonyl)-7-fluoro-2H-1,4-benzoxazin-3(4H)-one]"
10,99%,"O=C1COc2cc(F)c(C(=O)N3CC(COc4cc(Cl)cc(Cl)c4)C3)cc2N1 [Example 127, 6-((3-((3,5-dichlorophenoxy)methyl)azetidin-1-yl)carbonyl)-7-fluoro-2H-1,4-benzoxazin-3(4H)-one]"
11,93%,"O=C1COc2cc(F)c(C(=O)N3CC(COc4ccc(Oc5ccccc5)cc4)C3)cc2N1 [Example 128, 7-fluoro-6-((3-((4-phenoxyphenoxy)methyl)azetidin-1-yl)carbonyl)-2H-1,4-benzoxazin-3(4H)-one]"
12,99%,"O=C1COc2cc(F)c(C(=O)N3CC(COc4cccc(Oc5ccccc5)c4)C3)cc2N1 [Example 129, 7-fluoro-6-((3-((3-phenoxyphenoxy)methyl)azetidin-1-yl)carbonyl)-2H-1,4-benzoxazin-3(4H)-one]"
13,103%,"O=C1COc2cc(F)c(C(=O)N3CC(COc4ccc(Cl)c(F)c4)C3)cc2N1 [Example 130, 6-((3-((4-chloro-3-fluorophenoxy)methyl)azetidin-1-yl)carbonyl)-7-fluoro-2H-1,4-benzoxazin-3(4H)-one]"
14,101%,"O=C1COc2cc(F)c(C(=O)N3CC(COc4ccc(F)c(Cl)c4)C3)cc2N1 [Example 131, 6-((3-((3-chloro-4-fluorophenoxy)methyl)azetidin-1-yl)carbonyl)-7-fluoro-2H-1,4-benzoxazin-3(4H)-one]"
15,99%,"O=C1COc2cc(F)c(C(=O)N3CC(COc4cc(F)ccc4Cl)C3)cc2N1 [Example 132, 6-((3-((2-chloro-5-fluorophenoxy)methyl)azetidin-1-yl)carbonyl)-7-fluoro-2H-1,4-benzoxazin-3(4H)-one]"
16,98%,"N#Cc1cc(OCC2CN(C(=O)c3cc4c(cc3F)OCC(=O)N4)C2)ccc1Cl [Example 133, 2-chloro-5-((1-((7-fluoro-3-oxo-3,4-dihydro-2H-1,4-benzoxazin-6-yl)carbonyl)azetidin-3-yl)methoxy)benzonitrile]"
17,102%,"O=C1COc2cc(F)c(C(=O)N3CC(COc4cc(F)cc(Cl)c4)C3)cc2N1 [Example 134, 6-((3-((3-chloro-5-fluorophenoxy)methyl)azetidin-1-yl)carbonyl)-7-fluoro-2H-1,4-benzoxazin-3(4H)-one]"
18,101%,"O=C1COc2cc(F)c(C(=O)N3CC(COc4cccc(Cl)c4F)C3)cc2N1 [Example 135, 6-((3-((3-chloro-2-fluorophenoxy)methyl)azetidin-1-yl)carbonyl)-7-fluoro-2H-1,4-benzoxazin-3(4H)-one]"
19,98%,"O=C1COc2cc(F)c(C(=O)N3CC(COc4c(F)cccc4Cl)C3)cc2N1 [Example 136, 6-((3-((2-chloro-6-fluorophenoxy)methyl)azetidin-1-yl)carbonyl)-7-fluoro-2H-1,4-benzoxazin-3(4H)-one]"

# More lines, now with the values behind:
row,SMILES,inhibition at 10 µM
1,"O=C1COc2cc(F)c(C(=O)N3CC(COc4ccc5scnc5c4)C3)cc2N1 [Example 104, 6-((3-((1,3-benzothiazol-5-yloxy)methyl)azetidin-1-yl)carbonyl)-7-fluoro-2H-1,4-benzoxazin-3(4H)-one]",100%
2,"O=C1COc2cc(F)c(C(=O)N3CC(COc4cccc5scnc45)C3)cc2N1 [Example 105, 6-((3-((1,3-benzothiazol-4-yloxy)methyl)azetidin-1-yl)carbonyl)-7-fluoro-2H-1,4-benzoxazin-3(4H)-one]",97%
3,"O=C1COc2cc(F)c(C(=O)N3CC(COc4cccc5ocnc45)C3)cc2N1 [Example 106, 6-((3-((1,3-benzoxazol-4-yloxy)methyl)azetidin-1-yl)carbonyl)-7-fluoro-2H-1,4-benzoxazin-3(4H)-one]",101%
4,"O=C1COc2cc(F)c(C(=O)N3CC(COc4cccc5[nH]ncc45)C3)cc2N1 [Example 107, 7-fluoro-6-((3-((1H-indazol-4-yloxy)methyl)azetidin-1-yl)carbonyl)-2H-1,4-benzoxazin-3(4H)-one]",101%
5,"O=C1COc2cc(F)c(C(=O)N3CC(COc4ccc(-c5ccccc5)cc4)C3)cc2N1 [Example 108, 6-((3-((biphenyl-4-yloxy)methyl)azetidin-1-yl)carbonyl)-7-fluoro-2H-1,4-benzoxazin-3(4H)-one]",99%
6,"O=C1COc2cc(F)c(C(=O)N3CC(COc4ccccc4-c4ccccc4)C3)cc2N1 [Example 109, 6-((3-((biphenyl-2-yloxy)methyl)azetidin-1-yl)carbonyl)-7-fluoro-2H-1,4-benzoxazin-3(4H)-one]",103%
7,"O=C1COc2cc(F)c(C(=O)N3CC(COc4cccc(-c5ccccc5)c4)C3)cc2N1 [Example 110, 6-((3-((biphenyl-3-yloxy)methyl)azetidin-1-yl)carbonyl)-7-fluoro-2H-1,4-benzoxazin-3(4H)-one]",97%
8,"O=C1COc2cc(F)c(C(=O)N3CC(COc4ccc(Cl)cc4)C3)cc2N1 [Example 111, 6-((3-((4-chlorophenoxy)methyl)azetidin-1-yl)carbonyl)-7-fluoro-2H-1,4-benzoxazin-3(4H)-one]",98%
9,"O=C1COc2cc(F)c(C(=O)N3CC(COc4cccc(Cl)c4)C3)cc2N1 [Example 112, 6-((3-((3-chlorophenoxy)methyl)azetidin-1-yl)carbonyl)-7-fluoro-2H-1,4-benzoxazin-3(4H)-one]",101%
10,"O=C1COc2cc(F)c(C(=O)N3CC(COc4ccccc4Cl)C3)cc2N1 [Example 113, 6-((3-((2-chlorophenoxy)methyl)azetidin-1-yl)carbonyl)-7-fluoro-2H-1,4-benzoxazin-3(4H)-one]",101%
11,"O=C1COc2cc(F)c(C(=O)N3CC(COc4ccc(OCC(F)(F)F)cc4)C3)cc2N1 [Example 114, 7-fluoro-6-((3-((4-(2,2,2-trifluoroethoxy)phenoxy)methyl)azetidin-1-yl)carbonyl)-2H-1,4-benzoxazin-3(4H)-one]",99%
12,"COc1cc(Cl)ccc1OCC1CN(C(=O)c2cc3c(cc2F)OCC(=O)N3)C1 [Example 115, 6-((3-((4-chloro-2-methoxyphenoxy)methyl)azetidin-1-yl)carbonyl)-7-fluoro-2H-1,4-benzoxazin-3(4H)-one]",103%
13,"O=C1COc2cc(F)c(C(=O)N3CC(COc4ccc(C(F)(F)F)cc4Cl)C3)cc2N1 [Example 116, 6-((3-((2-chloro-4-(trifluoromethyl)phenoxy)methyl)azetidin-1-yl)carbonyl)-7-fluoro-2H-1,4-benzoxazin-3(4H)-one]",103%
14,"Cc1ccc(OCC2CN(C(=O)c3cc4c(cc3F)OCC(=O)N4)C2)c(Cl)c1 [Example 117, 6-((3-((2-chloro-4-methylphenoxy)methyl)azetidin-1-yl)carbonyl)-7-fluoro-2H-1,4-benzoxazin-3(4H)-one]",102%
